Results taken from ChEMBL document CHEMBL1201862, “PubChem BioAssay data set” (2004).
Activity calls are given as the source filed them.

Legend:
HEK293 [1] = experiment: optical interference in Abeta FP readout, dose response, artefact control for IDE activator project, biochemical, fluorescence polarization (AID 588442); type: functional, cell-based; conditions: Homo sapiens
Insulin-degrading enzyme [2] = target: T1, Insulin-degrading enzyme (Homo sapiens, UniProt P14735); experiment: activators of endogenous IDE in HEK cells, dose response, cell-based, fluorescence polarization (AID 588439); type: functional
T1 sequence (P14735 whole entry): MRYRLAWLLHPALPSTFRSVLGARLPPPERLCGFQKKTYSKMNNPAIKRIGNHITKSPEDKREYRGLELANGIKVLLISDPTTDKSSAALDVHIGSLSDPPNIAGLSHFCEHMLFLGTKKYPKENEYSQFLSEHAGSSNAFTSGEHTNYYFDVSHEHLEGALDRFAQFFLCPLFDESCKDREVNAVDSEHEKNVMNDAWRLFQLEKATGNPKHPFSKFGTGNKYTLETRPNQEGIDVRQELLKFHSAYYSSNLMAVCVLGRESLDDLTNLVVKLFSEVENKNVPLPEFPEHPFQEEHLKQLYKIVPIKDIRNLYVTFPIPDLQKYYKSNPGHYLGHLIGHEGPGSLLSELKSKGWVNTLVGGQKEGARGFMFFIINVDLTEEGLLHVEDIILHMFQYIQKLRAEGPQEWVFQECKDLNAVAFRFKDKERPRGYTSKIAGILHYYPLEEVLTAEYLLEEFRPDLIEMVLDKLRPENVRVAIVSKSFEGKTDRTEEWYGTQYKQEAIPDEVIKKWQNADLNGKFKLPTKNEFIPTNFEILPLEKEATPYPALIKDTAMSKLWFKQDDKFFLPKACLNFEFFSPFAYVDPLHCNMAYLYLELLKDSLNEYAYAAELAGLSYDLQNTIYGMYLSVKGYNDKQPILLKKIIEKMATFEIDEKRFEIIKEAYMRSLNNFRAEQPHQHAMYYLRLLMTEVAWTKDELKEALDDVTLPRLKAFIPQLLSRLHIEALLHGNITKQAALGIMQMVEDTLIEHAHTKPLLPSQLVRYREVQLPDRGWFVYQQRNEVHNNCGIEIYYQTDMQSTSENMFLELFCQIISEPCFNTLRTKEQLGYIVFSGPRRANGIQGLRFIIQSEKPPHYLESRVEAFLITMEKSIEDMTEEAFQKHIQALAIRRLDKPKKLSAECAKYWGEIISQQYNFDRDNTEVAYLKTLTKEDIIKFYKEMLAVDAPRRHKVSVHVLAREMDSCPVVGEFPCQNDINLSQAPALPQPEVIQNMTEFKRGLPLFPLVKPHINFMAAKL

HEK293 [3] = experiment: HEK cell cytotoxicity by LDH release, dose response, cytotoxicity control for IDE activator project, fluorescence, HEK cells (AID 588440); type: functional, cell-based; conditions: Homo sapiens;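 further: cytotoxicity by LDH release measuring loss of membrane integrity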
Insulin-degrading enzyme [4] = target: T1, Insulin-degrading enzyme; experiment: activators of recombinant IDE enzyme, dose response, counter-screen for IDE activator project, biochemical, fluorescence polarization (AID 588681)
[5] = inhibitors of clade B AD8 Env fusion, dose response, cell-based, cherry-pick (AID 652062); type: functional;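 further: luciferase signal from cell-cell fusion driven by HIV-1 clade B AD8 Env; potency is for inhibitors of fusion seen as a drop in luminescence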
[6] = A549 cell cytotoxicity, dose response, cytotoxicity control, plate reader, cherry-pick, antagonist series (AID 743412); type: functional, cell-based
[7] = Shn3 3'UTR reporter inhibitors, dose response, cell-based, Clone20 osteoblasts, firefly luciferase, cherry-picked (AID 624132); type: functional;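 further: firefly luciferase luminescence from reporter carrying the Shn3 3'UTR in osteoblasts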
[8] = Luminescence Cell-Based Dose Confirmation HTS to Identify Inhibitors of Platelet Dense Granule Release. [Related pubchem assays: 1663 (Primary HTS), 1678 (Summary of Project)]; type: functional
[9] = ZM109 Env clade C HIV-1 fusion inhibitors, dose response, HeLa effector, CEM target cells, luciferase, cherry-pick (AID 652058); type: functional, cell-based
BJ [10] = experiment: cytotoxicity toward BJ-TERT-LT-ST fibroblasts, dose response, cell-based, RAS-independent, luminescence (AID 1935); type: functional; conditions: Homo sapiens;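 further: BJ fibroblasts immortalized with TERT plus LT and ST oncogenes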
H4 [11] = experiment: Amyloid Precursor 5' UTR neuroblastoma cell reporter line Measured in Cell-Based System Using Plate Reader - 2078-04_Inhibitor_Dose_DryPowder_Activity. [Related pubchem assays (depositor defined):AID488894]; type: functional; conditions: Homo sapiens
[12] = HepG2 cell cytotoxicity, dose response, cytotoxicity control, plate reader, cherry-pick, antagonist series (AID 743416); type: functional, cell-based
[13] = off-target signal loss in HeLa-CEM21 co-culture – HeLa F-luc CTL cells, cherry-picked, counter-screen for HIV-1 Env fusion inhibitor project, dose response (AID 652040); type: functional, cell-based;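 further: potency for signal decrease marking cytotoxic or nonspecific inhibition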
INS1 = experiment: beta cell apoptosis inhibitors, cytokine rescue, dose response, luminescence, retest (AID 449756); type: functional, cell-based; conditions: Rattus norvegicus;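 further: cell death triggered by IL-1 beta plus TNF-alpha plus IFN-gamma mixture; protective hits raise ATP signal compared with cytokine alone wells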
[14] = inhibitors of HIV Env-driven cell fusion, dose response, cherry-pick (AID 652057); type: functional, cell-based
H4 [15] = experiment: Inhibitors of Prion Protein 5' UTR mRNA Measured in Cell-Based System Using Plate Reader - 2078-01_Inhibitor_Dose_DryPowder_Activity. [Related pubchem assays (depositor defined):AID488894]; type: functional; conditions: Homo sapiens
[16] = target: Heat shock protein HSP 90-alpha (Homo sapiens, UniProt P07900); type: functional, organism-based
[17] = cytotoxicity toward DRD oncogenic fibroblasts, dose response, cell-based, non-viral oncogenic, luminescence (AID 1934); type: functional; conditions: Homo sapiens
BJ [18] = experiment: cells; type: functional, cell-based; conditions: Homo sapiens
[19] = target: T2, Luciferin 4-monooxygenase (Photinus pyralis, UniProt P08659); experiment: firefly luciferase enzyme inhibitors, dose response, biochemical, dry powder samples, plate reader (AID 588451)
T2 sequence (P08659 whole entry): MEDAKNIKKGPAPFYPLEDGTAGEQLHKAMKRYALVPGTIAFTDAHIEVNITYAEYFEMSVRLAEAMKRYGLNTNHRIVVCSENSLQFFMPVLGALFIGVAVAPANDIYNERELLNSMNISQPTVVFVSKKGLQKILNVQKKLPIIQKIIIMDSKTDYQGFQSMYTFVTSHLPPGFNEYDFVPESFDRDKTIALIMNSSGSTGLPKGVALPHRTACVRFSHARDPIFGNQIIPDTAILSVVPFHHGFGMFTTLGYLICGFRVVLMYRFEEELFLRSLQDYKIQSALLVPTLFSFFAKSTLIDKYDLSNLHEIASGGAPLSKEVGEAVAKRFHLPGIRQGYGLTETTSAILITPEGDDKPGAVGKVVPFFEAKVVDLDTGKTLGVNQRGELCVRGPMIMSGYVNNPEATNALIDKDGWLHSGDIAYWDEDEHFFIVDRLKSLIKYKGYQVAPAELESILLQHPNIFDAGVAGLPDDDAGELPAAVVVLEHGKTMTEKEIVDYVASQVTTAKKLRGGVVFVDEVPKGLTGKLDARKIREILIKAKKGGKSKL

[20] = HepG2 cell cytotoxicity, dose response, cytotoxicity control for Shn3 inhibitor project, CellTiter-Glo, cherry-picked (AID 624134); type: functional, cell-based
[21] = cytotoxicity in HEK-293T NF-kB-Luc cells, dose response, cytotoxicity control for B/T-cell NF-kB inhibitor project, cell-based, uHTS hits (AID 489019); type: functional;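 further: IC50 reflects cytotoxicity as loss of cell viability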
BJ [22] = experiment: cytotoxicity toward Ras-transformed BJeLR fibroblasts, dose response, cell-based, alamar blue fluorescence, cherrypicked samples (AID 2631); type: functional; conditions: Homo sapiens;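 further: confirmatory dose-response assay in RAS-dependent BJ fibroblasts engineered with TERT, LT and ST, with cytotoxicity read by fluorescence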
[23] = MC4R antagonists, dose response, counter-screen for LGR2 antagonist project, cell-based, plate reader, cherry pick (AID 743444); type: functional;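 further: transfected HEK 293 cells stimulated with alpha-MSH peptide; potency of inhibitors of the alpha-MSH evoked signal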
H4 [24] = experiment: inhibitors of control reporter signal in H4 cells – cell-based, plate reader, dry powder samples, counter-screen for prion reporter project, dose response (AID 540255); type: functional; conditions: Homo sapiens
[25] = CEM21 lymphoblast cell cytotoxicity, dose response, cytotoxicity control for viral fusion inhibitor project, CellTiter-Glo luminescence, cherry-picked (AID 652042); type: functional, cell-based;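 further: potency for signal decrease meaning cytotoxicity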
[26] = LGR2 antagonists, dose response, cell-based, HEK293, CRE-luciferase reporter, cherry pick, set 2 (AID 743343); type: functional;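 further: transfected cells were stimulated with diluted bursicon conditioned medium after compound addition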
Jurkat = experiment: antigen receptor-induced NF-kB inhibitors, dose response, Jurkat, luciferase reporter, luminescence, B- and T-cell (AID 489004); type: functional, cell-based; conditions: Homo sapiens;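 further: NF-kB luciferase reporter Jurkat cells stimulated with PMA plus ionomycin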
[27] = target: T2, Luciferin 4-monooxygenase; experiment: firefly luciferase enzyme inhibitors, dose response, biochemical, luminescence (AID 1891)
[28] = HEK293 cell cytotoxicity, dose response, cytotoxicity control, plate reader, cherry-picked samples (AID 743446); type: functional, cell-based
BJ [29] = experiment: cytotoxicity toward BJ-TERT fibroblasts, dose response, cell-based, RAS-independent, luminescence (AID 1933); type: functional; conditions: Homo sapiens
[30] = target: T3, High affinity choline transporter 1 (Homo sapiens, UniProt Q9GZV3); experiment: CHT activators, dose response, cell-based, 10-point CRC, membrane potential dye (AID 602376); type: functional
T3 sequence (Q9GZV3 whole entry): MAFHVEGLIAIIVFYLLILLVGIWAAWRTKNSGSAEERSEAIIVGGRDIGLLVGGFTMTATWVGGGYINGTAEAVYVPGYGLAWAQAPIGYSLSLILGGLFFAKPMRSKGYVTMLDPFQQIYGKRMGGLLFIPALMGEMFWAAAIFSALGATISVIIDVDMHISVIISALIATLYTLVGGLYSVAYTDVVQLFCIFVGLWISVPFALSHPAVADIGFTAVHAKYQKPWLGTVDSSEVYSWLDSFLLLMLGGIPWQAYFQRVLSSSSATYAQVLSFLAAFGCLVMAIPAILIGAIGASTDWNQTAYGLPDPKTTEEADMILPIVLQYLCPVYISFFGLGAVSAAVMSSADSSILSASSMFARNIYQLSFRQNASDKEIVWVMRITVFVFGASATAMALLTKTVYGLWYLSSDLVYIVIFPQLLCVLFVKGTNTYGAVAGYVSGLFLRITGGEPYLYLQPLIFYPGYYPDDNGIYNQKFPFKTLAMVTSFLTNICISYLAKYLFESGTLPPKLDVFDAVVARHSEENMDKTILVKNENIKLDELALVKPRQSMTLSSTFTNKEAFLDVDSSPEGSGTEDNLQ

[31] = target: Neuropeptides B/W receptor type 1 (Homo sapiens, UniProt P48145); experiment: GPR7 antagonist potency, late-stage follow-up, cell-based, fluorescence, dose response, set 6 (AID 588583); type: functional
Neuropeptides B/W receptor type 1, sequence (P48145 whole entry): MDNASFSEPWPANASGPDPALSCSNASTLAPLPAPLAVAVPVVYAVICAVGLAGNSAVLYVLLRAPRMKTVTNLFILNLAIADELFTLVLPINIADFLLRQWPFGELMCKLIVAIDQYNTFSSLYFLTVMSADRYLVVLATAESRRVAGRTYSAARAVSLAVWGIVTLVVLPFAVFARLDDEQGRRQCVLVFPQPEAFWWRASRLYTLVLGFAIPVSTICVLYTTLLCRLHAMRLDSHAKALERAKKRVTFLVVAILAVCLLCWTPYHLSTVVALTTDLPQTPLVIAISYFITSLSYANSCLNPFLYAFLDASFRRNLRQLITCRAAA

[32] = target: Melanin-concentrating hormone receptor 1 (Homo sapiens, UniProt Q99705); experiment: Late-stage fluorescence-based counterscreen for antagonists of the G-protein coupled receptor 7 (GPR7): cell-based dose response assay to identify antagonists of the melanin-concentrating hormone receptor 1 (MCHR1) Set 6.; type: functional
Focal adhesion kinase 1 = Focal adhesion kinase 1 (Homo sapiens, UniProt Q05397); type: functional;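 further: measured as one member of a kinome panel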
Aurora kinase B = Aurora kinase B (Homo sapiens, UniProt Q96GD4); type: functional
Aurora kinase B, sequence (Q96GD4 whole entry): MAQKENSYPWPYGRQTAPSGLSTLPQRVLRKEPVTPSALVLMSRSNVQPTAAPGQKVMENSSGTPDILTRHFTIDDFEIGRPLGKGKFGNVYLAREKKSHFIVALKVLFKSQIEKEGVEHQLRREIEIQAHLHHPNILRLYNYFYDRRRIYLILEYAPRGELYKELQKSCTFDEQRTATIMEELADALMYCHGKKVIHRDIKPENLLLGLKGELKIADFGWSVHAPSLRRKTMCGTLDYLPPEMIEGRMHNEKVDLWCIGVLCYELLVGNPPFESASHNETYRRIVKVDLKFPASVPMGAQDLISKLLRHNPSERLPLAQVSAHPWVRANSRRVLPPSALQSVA

Aurora kinase A = Aurora kinase A (Homo sapiens, UniProt O14965); type: functional;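 further: value from the Navigating the Kinome kinase panel profiling, panel entry STK6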
[33] = target: ALK tyrosine kinase receptor (Homo sapiens, UniProt Q9UM73); type: functional;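 further: ALK tested as one member of a kinase panel screen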
ALK tyrosine kinase receptor, sequence (Q9UM73 whole entry): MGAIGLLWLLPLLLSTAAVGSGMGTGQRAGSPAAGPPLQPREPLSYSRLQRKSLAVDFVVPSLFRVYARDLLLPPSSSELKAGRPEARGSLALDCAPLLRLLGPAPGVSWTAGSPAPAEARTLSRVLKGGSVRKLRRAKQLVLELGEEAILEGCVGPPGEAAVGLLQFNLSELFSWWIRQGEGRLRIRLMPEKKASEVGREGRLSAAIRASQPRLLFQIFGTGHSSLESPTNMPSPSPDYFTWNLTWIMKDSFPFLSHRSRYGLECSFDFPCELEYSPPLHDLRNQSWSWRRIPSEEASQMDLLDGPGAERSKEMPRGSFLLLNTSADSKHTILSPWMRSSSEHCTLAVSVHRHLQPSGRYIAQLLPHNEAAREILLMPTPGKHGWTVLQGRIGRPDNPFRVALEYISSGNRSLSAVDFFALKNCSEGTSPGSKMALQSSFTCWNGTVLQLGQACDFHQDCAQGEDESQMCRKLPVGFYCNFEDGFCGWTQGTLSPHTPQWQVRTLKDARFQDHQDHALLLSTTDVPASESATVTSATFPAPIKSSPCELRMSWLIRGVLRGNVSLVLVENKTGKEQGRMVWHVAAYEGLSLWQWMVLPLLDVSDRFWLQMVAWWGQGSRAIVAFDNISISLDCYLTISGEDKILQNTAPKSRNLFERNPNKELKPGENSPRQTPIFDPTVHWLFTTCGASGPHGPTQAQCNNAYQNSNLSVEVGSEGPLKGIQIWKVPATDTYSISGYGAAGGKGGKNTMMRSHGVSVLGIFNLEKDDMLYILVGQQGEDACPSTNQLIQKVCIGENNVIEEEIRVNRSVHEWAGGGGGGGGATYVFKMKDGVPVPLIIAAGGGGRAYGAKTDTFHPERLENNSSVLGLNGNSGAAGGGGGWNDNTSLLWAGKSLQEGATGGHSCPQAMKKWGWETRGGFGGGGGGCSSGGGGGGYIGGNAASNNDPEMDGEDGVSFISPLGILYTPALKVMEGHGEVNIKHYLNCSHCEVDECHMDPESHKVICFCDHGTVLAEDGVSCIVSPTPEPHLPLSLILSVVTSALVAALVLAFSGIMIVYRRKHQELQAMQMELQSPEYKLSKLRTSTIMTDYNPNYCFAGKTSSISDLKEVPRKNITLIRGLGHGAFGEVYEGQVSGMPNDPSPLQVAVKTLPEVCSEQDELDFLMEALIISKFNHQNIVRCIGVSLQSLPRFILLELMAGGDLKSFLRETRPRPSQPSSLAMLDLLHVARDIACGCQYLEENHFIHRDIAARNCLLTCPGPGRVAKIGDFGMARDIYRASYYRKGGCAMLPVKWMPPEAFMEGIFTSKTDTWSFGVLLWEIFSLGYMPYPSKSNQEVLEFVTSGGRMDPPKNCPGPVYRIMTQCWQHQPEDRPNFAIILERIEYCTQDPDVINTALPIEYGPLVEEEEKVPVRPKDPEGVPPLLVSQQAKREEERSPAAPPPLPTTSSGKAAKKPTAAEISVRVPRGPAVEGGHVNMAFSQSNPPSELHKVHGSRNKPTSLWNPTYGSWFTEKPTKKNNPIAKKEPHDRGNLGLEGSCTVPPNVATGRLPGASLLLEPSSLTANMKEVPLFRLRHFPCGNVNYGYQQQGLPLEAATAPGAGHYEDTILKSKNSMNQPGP

[34] = Luminescence Cell-Based Dose Response HTS to Identify Inhibitors of 5'UTR Stem-Loop Driven Prion Protein mRNA Translation in H4 Neuroglioblastoma Cells. [Related pubchem assays: 1827 (Project Summary), 1813 (Primary HTS)]; type: functional
[35] = target: Cyclin-dependent kinase 5/CDK5 activator 1 (Homo sapiens, UniProt Q00535); experiment: CDK5-p25 kinase inhibition, dose response, selectivity assay for GSK3beta inhibitor project, biochemical, microfluidic mobility shift, dry powder, set 2 (AID 623979); type: functional
Cyclin-dependent kinase 5/CDK5 activator 1, sequence (Q00535 whole entry): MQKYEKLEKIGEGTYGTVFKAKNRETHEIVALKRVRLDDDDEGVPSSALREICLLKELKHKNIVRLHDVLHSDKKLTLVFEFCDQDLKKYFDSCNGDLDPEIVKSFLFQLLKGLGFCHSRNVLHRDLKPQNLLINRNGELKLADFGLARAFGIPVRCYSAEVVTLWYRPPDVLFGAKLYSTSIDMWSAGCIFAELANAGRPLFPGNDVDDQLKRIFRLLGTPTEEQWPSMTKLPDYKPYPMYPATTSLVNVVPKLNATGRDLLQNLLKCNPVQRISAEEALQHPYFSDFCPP
Cyclin-dependent kinase 5/CDK5 activator 1, sequence (Q15078 whole entry, further chain): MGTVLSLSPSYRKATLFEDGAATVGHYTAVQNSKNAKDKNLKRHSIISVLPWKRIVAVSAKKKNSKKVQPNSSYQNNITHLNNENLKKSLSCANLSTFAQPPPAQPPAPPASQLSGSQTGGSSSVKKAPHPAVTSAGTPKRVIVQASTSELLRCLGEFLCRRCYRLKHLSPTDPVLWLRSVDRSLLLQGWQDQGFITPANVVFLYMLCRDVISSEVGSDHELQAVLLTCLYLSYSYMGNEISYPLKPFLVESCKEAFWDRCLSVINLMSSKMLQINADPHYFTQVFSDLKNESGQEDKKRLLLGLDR

[36] = inhibitors of SNCA 5'UTR-driven reporter translation, confirmation, H4 neuroglioma cells, luminescence (AID 1988); type: functional, cell-based
[37] = target: Glycogen synthase kinase-3 beta (Homo sapiens, UniProt P49841); experiment: GSK3beta kinase inhibitors, dose response, biochemical, microfluidics, dry powder samples, set 2 (AID 623989); type: functional
Glycogen synthase kinase-3 beta, sequence (P49841 whole entry): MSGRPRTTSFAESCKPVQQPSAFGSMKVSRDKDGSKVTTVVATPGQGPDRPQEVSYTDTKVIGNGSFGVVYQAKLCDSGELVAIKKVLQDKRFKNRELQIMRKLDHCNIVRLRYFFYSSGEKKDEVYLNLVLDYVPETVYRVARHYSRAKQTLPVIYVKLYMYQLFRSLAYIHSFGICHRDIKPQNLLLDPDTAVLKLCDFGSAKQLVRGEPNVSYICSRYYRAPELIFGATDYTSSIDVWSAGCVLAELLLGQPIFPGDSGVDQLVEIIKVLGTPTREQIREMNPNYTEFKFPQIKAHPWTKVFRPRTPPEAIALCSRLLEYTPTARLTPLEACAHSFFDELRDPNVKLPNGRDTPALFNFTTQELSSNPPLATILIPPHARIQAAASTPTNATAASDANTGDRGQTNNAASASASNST

[38] = target: Glycogen synthase kinase-3 alpha (Homo sapiens, UniProt P49840); experiment: human GSK3 alpha kinase inhibition, dose response, selectivity assay for GSK3beta inhibitor project, biochemical, microfluidics, dry powder samples, set 2 (AID 623978); type: functional
Glycogen synthase kinase-3 alpha, sequence (P49840 whole entry): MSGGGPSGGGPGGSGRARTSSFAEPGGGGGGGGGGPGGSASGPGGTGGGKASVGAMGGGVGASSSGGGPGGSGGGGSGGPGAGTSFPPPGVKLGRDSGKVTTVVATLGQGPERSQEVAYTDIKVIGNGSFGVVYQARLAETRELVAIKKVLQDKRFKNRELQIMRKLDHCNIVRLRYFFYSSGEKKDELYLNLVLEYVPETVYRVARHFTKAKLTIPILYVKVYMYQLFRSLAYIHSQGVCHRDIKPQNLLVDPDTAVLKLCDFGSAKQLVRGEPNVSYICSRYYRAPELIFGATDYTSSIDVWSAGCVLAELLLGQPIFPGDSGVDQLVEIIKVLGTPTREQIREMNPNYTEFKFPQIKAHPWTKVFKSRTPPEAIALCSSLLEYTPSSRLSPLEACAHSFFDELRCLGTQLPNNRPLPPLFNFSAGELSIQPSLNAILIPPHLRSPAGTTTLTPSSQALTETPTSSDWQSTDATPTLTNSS

[39] = inhibitors of firefly luciferase expression or activity, dose response, H4 neuroglioma cells, luminescence (AID 1990); type: functional, cell-based
[40] = target: DNA dC->dU-editing enzyme APOBEC-3G (Homo sapiens, UniProt Q9HC16); experiment: SAR analysis of small molecule inhibitors of APOBEC3G DNA Deaminase via a fluorescence-based single-stranded DNA deaminase assay - Set 2.; type: functional; conditions: read-out: IC50_Mean
DNA dC->dU-editing enzyme APOBEC-3G, sequence (Q9HC16 whole entry): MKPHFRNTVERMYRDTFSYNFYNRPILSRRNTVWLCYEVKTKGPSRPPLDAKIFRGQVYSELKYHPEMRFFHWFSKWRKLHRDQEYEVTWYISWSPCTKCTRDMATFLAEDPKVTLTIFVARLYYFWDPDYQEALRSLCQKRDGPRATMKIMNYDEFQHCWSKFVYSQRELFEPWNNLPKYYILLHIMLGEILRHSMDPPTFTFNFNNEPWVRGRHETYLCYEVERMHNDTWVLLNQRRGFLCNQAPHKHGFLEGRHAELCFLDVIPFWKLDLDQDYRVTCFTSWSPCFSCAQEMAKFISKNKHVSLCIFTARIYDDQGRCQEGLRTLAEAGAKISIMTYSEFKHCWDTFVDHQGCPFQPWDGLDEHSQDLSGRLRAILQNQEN

[41] = target: DNA dC->dU-editing enzyme APOBEC-3A (Homo sapiens, UniProt P31941); experiment: SAR analysis of small molecule inhibitors of APOBEC3A DNA Deaminase via a fluorescence-based single-stranded DNA deaminase assay - Set 2.; type: functional; conditions: read-out: IC50_Mean
DNA dC->dU-editing enzyme APOBEC-3A, sequence (P31941 whole entry): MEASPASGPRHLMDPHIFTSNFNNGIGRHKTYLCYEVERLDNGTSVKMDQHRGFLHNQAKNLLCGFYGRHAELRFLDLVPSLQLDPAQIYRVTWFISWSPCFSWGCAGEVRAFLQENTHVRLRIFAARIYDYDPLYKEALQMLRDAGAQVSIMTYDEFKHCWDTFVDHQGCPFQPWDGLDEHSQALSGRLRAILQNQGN

## O=C(COc1cccc2cccnc12)Nc1cccc(S(=O)(=O)N2CCCC2)c1
HEK293 [1]
  EC50: > 55900 nM (inactive)
Insulin-degrading enzyme [2]
  EC50: > 54700 nM (inactive)
HEK293 [3]
  IC50: > 89200 nM (inactive)
Insulin-degrading enzyme [4]
  EC50: > 54700 nM (inactive)

## COc1cc(SC)ccc1C(=O)Nc1nc2ccccc2[nH]1
[5]
  AC50: 319 nM (active)
[6]
  AC50: 2520 nM (active)
[7]
  AC50: < 260 nM (active)
[8]
  EC50: 240 nM (active)
[9]
  AC50: 1980 nM (active)
BJ [10]
  EC50: 2260 nM (active)
H4 [11]
  AC50: < 0.015 nM (active)
[12]
  AC50: 14500 nM (active)
[13]
  AC50: 513 nM (active)
INS1
  AC50: 1120 nM (active)
[14]
  AC50: 260 nM (active)
H4 [15]
  AC50: 28 nM (active)
[16]
  AC50: 1420 nM (active)
[17]
  EC50: 930 nM (active)
BJ [18]
  EC50: 1260 nM (active)
[19]
  AC50: 9.03 nM (active)
[20]
  AC50: 28500 nM (active)
[21]
  IC50: > 80000 nM (inactive)
BJ [22]
  EC50: > 133000 nM (inactive)
[23]
  AC50: < 68 nM (active)
H4 [24]
  AC50: 885 nM (active)
[25]
  AC50: 1280 nM (active)
[26]
  AC50: < 68 nM (active)
Jurkat
  IC50: < 160 nM (active)
[27]
  EC50: 152 nM (active)
[28]
  AC50: 3350 nM (active)
BJ [29]
  EC50: 1020 nM (active)

## O=C(c1cccc(C(F)(F)F)c1)C1CCCN(Cc2cccn2-c2ncccn2)C1 (stereo unspecified)
[30]
  EC50: 6690 nM (active)

## COc1ccc(Oc2c(Cl)cnn(CC(=O)Nc3ccccc3-c3ccccc3)c2=O)cc1
[31]
  IC50: 1140 nM (active)
[32]
  IC50: 1140 nM (active)

## Cc1cc(N2CCOCC2)cc2[nH]c(-c3c(NCC(O)c4ccccc4)cc[nH]c3=O)nc12 (stereo unspecified)
Focal adhesion kinase 1
  Ki: 31.6 nM (active)
Aurora kinase B
  Ki: 50.1 nM (active)
Aurora kinase A
  Ki: 251 nM (active)
[33]
  Ki: 79.4 nM (active)

## CCOc1cccc(-c2c(C(=O)N/N=C/c3sccc3C)nnn2-c2nonc2N)c1
[34]
  EC50: 15600 nM (active)
[35]
  AC50: 4070 nM (active)
[36]
  EC50: 82200 nM (active)
[37]
  AC50: 197 nM (active)
[38]
  AC50: 474 nM (active)
[39]
  EC50: > 120000 nM (not active)

## Cc1ccc(-c2csc3nnc(SCCOc4ccccc4)n23)cc1
[40]
  IC50: > 99000 nM (inactive)
[41]
  IC50: > 99000 nM (inactive)
